Reference: patent US20250082674A1, “METHODS OF TREATING COPPER METABOLISM-ASSOCIATED DISEASES OR DISORDERS” (priority 2021, published 2025)

Tests used:
[1] = in vivo
[2] = Study 301: adverse events in participants who switched from SoC to BC-TTM in the Extension Period; conditions: SoC Weeks 0-48 (N = 70), BC-TTM Weeks 49-96 (N = 61)

## Bis-choline tetrathiomolybdate [BC-TTM]
[1]
  AEs in SOC Investigations: 29.5%
  AEs in SOC Metabolism and nutrition disorders: 11.5%
  AEs in SOC Skin and subcutaneous tissue disorders: 13.1%
  Affective disorder, E events: 0
  Affective disorder, N participants: 0
  Alanine aminotransferase increased, E events: 14
  Alanine aminotransferase increased, N participants: 12
  Alanine aminotransferase increased, participants (%): 19.7%
  Anxiety, E events: 1
  Anxiety, N participants: 1
  Anxiety, participants (%): 1.6%
  Aspartate aminotransferase increased, E events: 4
  Aspartate aminotransferase increased, N participants: 4
  Aspartate aminotransferase increased, participants (%): 6.6%
  Attention deficit hyperactivity disorder, E events: 0
  Attention deficit hyperactivity disorder, N participants: 0
  Blood and lymphatic system disorders, E events: 18
  Blood and lymphatic system disorders, N participants: 7
  Blood and lymphatic system disorders, participants (%): 11.5%
  Cardiac disorders, E events: 5
  Cardiac disorders, N participants: 3
  Cardiac disorders, participants (%): 4.9%
  Congenital, familial, and genetic disorders, E events: 0
  Congenital, familial, and genetic disorders, N participants: 0
  Dyslipidemia, E events: 1
  Dyslipidemia, N participants: 1
  Dyslipidemia, participants (%): 1.6%
  Ear and labyrinth disorders, E events: 1
  Ear and labyrinth disorders, N participants: 1
  Ear and labyrinth disorders, participants (%): 1.6%
  Eczema, E events: 1
  Eczema, N participants: 1
  Eczema, participants (%): 1.6%
  Eye disorders, E events: 0
  Eye disorders, N participants: 0
  Fatigue, E events: 5
  Fatigue, N participants: 5
  Fatigue, participants (%): 8.2%
  Gamma-glutamyltransferase increased, E events: 3
  Gamma-glutamyltransferase increased, N participants: 3
  Gamma-glutamyltransferase increased, participants (%): 4.9%
  Gastrointestinal disorders, E events: 30
  Gastrointestinal disorders, N participants: 18
  Gastrointestinal disorders, participants (%): 29.5%
  Hand dermatitis, E events: 1
  Hand dermatitis, N participants: 1
  Hand dermatitis, participants (%): 1.6%
  Hepatic enzyme increased, E events: 3
  Hepatic enzyme increased, N participants: 3
  Hepatic enzyme increased, participants (%): 4.9%
  Hepatobiliary disorders, E events: 3
  Hepatobiliary disorders, N participants: 2
  Hepatobiliary disorders, participants (%): 3.3%
  Hyperlipidaemia, E events: 1
  Hyperlipidaemia, N participants: 1
  Hyperlipidaemia, participants (%): 1.6%
  Hypertriglyceridaemia, E events: 3
  Hypertriglyceridaemia, N participants: 1
  Hypertriglyceridaemia, participants (%): 1.6%
  Infections and infestations, E events: 23
  Infections and infestations, N participants: 17
  Infections and infestations, participants (%): 27.9%
  Injury, poisoning and procedural complications, E events: 13
  Injury, poisoning and procedural complications, N participants: 7
  Injury, poisoning and procedural complications, participants (%): 11.5%
  Investigations, E events: 29
  Investigations, N participants: 18
  Investigations, participants (%): 29.5%
  Metabolism and nutrition disorders, E events: 10
  Metabolism and nutrition disorders, N participants: 7
  Metabolism and nutrition disorders, participants (%): 11.5%
  Neoplasms benign, malignant, and unspecified (incl cysts and polyps), E events: 1
  Neoplasms benign, malignant, and unspecified (incl cysts and polyps), N participants: 1
  Neoplasms benign, malignant, and unspecified (incl cysts and polyps), participants (%): 1.6%
  Nervous system disorders, E events: 12
  Nervous system disorders, N participants: 11
  Nervous system disorders, participants (%): 18.0%
  Neutrophil count decreased, E events: 1
  Neutrophil count decreased, N participants: 1
  Neutrophil count decreased, participants (%): 1.6%
  Post-traumatic stress disorder, E events: 1
  Post-traumatic stress disorder, N participants: 1
  Post-traumatic stress disorder, participants (%): 1.6%
  Product issues, E events: 0
  Product issues, N participants: 0
  Pruritus, E events: 2
  Pruritus, N participants: 2
  Pruritus, participants (%): 3.3%
  Psychiatric disorders, E events: 3
  Psychiatric disorders, N participants: 3
  Psychiatric disorders, participants (%): 4.9%
  Pyrexia, E events: 1
  Pyrexia, N participants: 1
  Pyrexia, participants (%): 1.6%
  Rash pruritic, E events: 1
  Rash pruritic, N participants: 1
  Rash pruritic, participants (%): 1.6%
  Rash, E events: 5
  Rash, N participants: 1
  Rash, participants (%): 1.6%
  Renal and urinary disorders, E events: 2
  Renal and urinary disorders, N participants: 1
  Renal and urinary disorders, participants (%): 1.6%
  Reproductive system and breast disorders, E events: 0
  Reproductive system and breast disorders, N participants: 0
  Respiratory, thoracic, and mediastinal disorders, E events: 4
  Respiratory, thoracic, and mediastinal disorders, N participants: 3
  Respiratory, thoracic, and mediastinal disorders, participants (%): 4.9%
  Restlessness, E events: 0
  Restlessness, N participants: 0
  Skin and subcutaneous tissue disorders, E events: 15
  Skin and subcutaneous tissue disorders, N participants: 8
  Skin and subcutaneous tissue disorders, participants (%): 13.1%
  Sleep disorder, E events: 1
  Sleep disorder, N participants: 1
  Sleep disorder, participants (%): 1.6%
  Vascular disorders, E events: 5
  Vascular disorders, N participants: 3
  Vascular disorders, participants (%): 4.9%
  imbalances in neurologic and psychiatric events after switch from SoC to BC-TTM: not observed
[2]
  Musculoskeletal and connective tissue disorders, E events: 7
  Musculoskeletal and connective tissue disorders, N participants: 7
  Musculoskeletal and connective tissue disorders, participants (%): 11.5%
